Assay results taken from ChEMBL document CHEMBL4800727 (2021).
Each block holds one molecule with its values, some of them ahead of it.

Assays:
[1] = target: 5-hydroxytryptamine receptor 1B (Rattus norvegicus) (UniProt P28564); test: r5HT1B Cerep panel; details: Compound concentration 10.0 uM
[2] = target: cAMP-dependent protein kinase catalytic subunit PRKX (Homo sapiens) (UniProt P51817); test: protein kinase, X-linked Millipore kinase panel; details: Compound concentration 10.0 uM
[3] = target: Ribosomal protein S6 kinase alpha-6 (Homo sapiens) (UniProt Q9UK32); test: ribosomal protein S6 kinase, 90kDa, polypeptide 6 Millipore kinase panel; details: Compound concentration 10.0 uM
[4] = target: 5'-AMP-activated protein kinase catalytic subunit alpha-2 (Homo sapiens) (UniProt P54646); test: protein kinase, AMP-activated, alpha 2 catalytic subunit Millipore kinase panel; details: Compound concentration 10.0 uM
[5] = target: Serine/threonine-protein kinase Sgk1 (Homo sapiens) (UniProt O00141); test: serum/glucocorticoid regulated kinase 1 Millipore kinase panel; details: Compound concentration 10.0 uM
[6] = target: Tyrosine-protein kinase Lyn (Homo sapiens) (UniProt P07948); test: v-yes-1 Yamaguchi sarcoma viral related oncogene homolog Millipore kinase panel; details: Compound concentration 10.0 uM
[7] = target: Fibroblast growth factor receptor 2 (Homo sapiens) (UniProt P21802); test: fibroblast growth factor receptor 2 Millipore kinase panel; details: Compound concentration 10.0 uM
[8] = target: Muscle, skeletal receptor tyrosine-protein kinase (Homo sapiens) (UniProt O15146); test: muscle, skeletal, receptor tyrosine kinase Millipore kinase panel; details: Compound concentration 10.0 uM
[9] = target: Prostacyclin receptor (Homo sapiens) (UniProt P43119); test: hIP1 Cerep panel; details: Compound concentration 10.0 uM
[10] = target: cGMP-specific 3',5'-cyclic phosphodiesterase (Homo sapiens, UniProt O76074); test: hPDE5A3 PDE scan
[11] = target: Kappa-type opioid receptor (Rattus norvegicus) (UniProt P34975); test: rOP2 Cerep panel; details: Compound concentration 10.0 uM
[12] = target: Prostaglandin E2 receptor EP4 subtype (Homo sapiens) (UniProt P35408); test: hEP4 Cerep panel; details: Compound concentration 10.0 uM
[13] = target: Serine/threonine-protein kinase STK11 (Homo sapiens) (UniProt Q15831); test: serine/threonine kinase 11 Millipore kinase panel; details: Compound concentration 10.0 uM
[14] = target: Ephrin type-A receptor 1 (Homo sapiens) (UniProt P21709); test: EPH receptor A1 Millipore kinase panel; details: Compound concentration 10.0 uM
[15] = target: Protein kinase C theta type (Homo sapiens) (UniProt Q04759); test: protein kinase C, theta Millipore kinase panel; details: Compound concentration 10.0 uM
Rattus norvegicus [16] = organism: Rattus norvegicus; test: rGlutamate (ionotropic) MDL Cerep panel; details: Compound concentration 10.0 uM
[17] = target: Testis-specific serine/threonine-protein kinase 2 (Homo sapiens) (UniProt Q96PF2); test: testis-specific serine kinase 2 Millipore kinase panel; details: Compound concentration 10.0 uM
Homo sapiens = organism: Homo sapiens; test: hSigma Cerep panel; details: Compound concentration 10.0 uM
Rattus norvegicus [18] = organism: Rattus norvegicus; details: Compound concentration 10.0 uM
[19] = target: Interleukin-1 receptor-associated kinase 1 (Homo sapiens) (UniProt P51617); test: interleukin-1 receptor-associated kinase 1 Millipore kinase panel; details: Compound concentration 10.0 uM
[20] = target: Serine/threonine-protein kinase D1 (Homo sapiens) (UniProt Q15139); test: protein kinase D1 Millipore kinase panel; details: Compound concentration 10.0 uM
[21] = target: Mitogen-activated protein kinase 8 (Homo sapiens) (UniProt P45983); test: mitogen-activated protein kinase 8 Millipore kinase panel; details: Compound concentration 10.0 uM
[22] = target: Rho-associated protein kinase 1 (Homo sapiens) (UniProt Q13464); test: Rho-associated, coiled-coil containing protein kinase 1 Millipore kinase panel; details: Compound concentration 10.0 uM
[23] = target: Tyrosine-protein kinase Lck (Homo sapiens) (UniProt P06239); test: hLck Cerep panel; details: Compound concentration 10.0 uM
[24] = target: Tyrosine-protein kinase HCK (Homo sapiens) (UniProt P08631); test: hemopoietic cell kinase (activated) Millipore kinase panel; details: Compound concentration 10.0 uM
[25] = target: Serine/threonine-protein kinase PLK2 (Homo sapiens) (UniProt Q9NYY3); test: polo-like kinase 2 Millipore kinase panel; details: Compound concentration 10.0 uM
[26] = target: CDK7/Cyclin H/MNAT1 (Homo sapiens) (UniProt P51946+P50613+P51948); test: Cyclin-dependent kinase 7 / cyclinH / MAT Millipore kinase panel; assay type: protein-complex assay; details: Compound concentration 10.0 uM
[27] = target: MAP kinase-activated protein kinase 3 (Homo sapiens) (UniProt Q16644); test: mitogen-activated protein kinase-activated protein kinase 3 Millipore kinase panel; details: Compound concentration 10.0 uM
[28] = target: Serine/threonine-protein kinase WNK3 (Homo sapiens) (UniProt Q9BYP7); test: WNK lysine deficient protein kinase 3 Millipore kinase panel; details: Compound concentration 10.0 uM
[29] = target: PI3-kinase p110-delta/p85-alpha (Homo sapiens) (UniProt P27986+O00329); test: phosphoinositide-3-kinase, catalytic, delta polypeptide Millipore kinase panel; assay type: protein-complex assay; details: Compound concentration 10.0 uM
[30] = target: Tyrosine-protein kinase SYK (Homo sapiens) (UniProt P43405); test: spleen tyrosine kinase Millipore kinase panel; details: Compound concentration 10.0 uM
[31] = target: Somatostatin receptor (Mus musculus) (UniProt P30935+O08858+P30875+P30873+P49660); test: mSST Cerep panel; assay type: protein assay; details: Compound concentration 10.0 uM
[32] = target: Tyrosine-protein kinase ABL2 (Homo sapiens) (UniProt P42684); test: v-abl Abelson murine leukemia viral oncogene homolog 2 Millipore kinase panel; details: Compound concentration 10.0 uM
[33] = target: Glucocorticoid receptor (Homo sapiens) (UniProt P04150); test: hGR Cerep panel; details: Compound concentration 10.0 uM
[34] = target: 5-hydroxytryptamine receptor 5A (Homo sapiens) (UniProt P47898); test: h5HT5A Cerep panel; details: Compound concentration 10.0 uM
[35] = target: Mitogen-activated protein kinase 13 (Homo sapiens) (UniProt O15264); test: mitogen-activated protein kinase 13 Millipore kinase panel; details: Compound concentration 10.0 uM
[36] = target: cAMP and cAMP-inhibited cGMP 3',5'-cyclic phosphodiesterase 10A (Mus musculus) (UniProt Q8CA95)
[37] = target: Ribosomal protein S6 kinase alpha-1 (Homo sapiens) (UniProt Q15418); test: ribosomal protein S6 kinase, 90kDa, polypeptide 1 Millipore kinase panel; details: Compound concentration 10.0 uM
[38] = target: RAC-alpha serine/threonine-protein kinase (Homo sapiens) (UniProt P31749); test: v-akt murine thymoma viral oncogene homolog 1 Millipore kinase panel; details: Compound concentration 10.0 uM
[39] = target: cGMP-inhibited 3',5'-cyclic phosphodiesterase 3A (Homo sapiens, UniProt Q14432); test: hPDE3A PDE scan
[40] = target: Substance-K receptor (Homo sapiens) (UniProt P21452); test: hNK2 Cerep panel; details: Compound concentration 10.0 uM
[41] = target: Angiopoietin-1 receptor (Homo sapiens) (UniProt Q02763); test: TEK tyrosine kinase, endothelial Millipore kinase panel; details: Compound concentration 10.0 uM
[42] = target: cGMP-dependent protein kinase 1 (Homo sapiens) (UniProt Q13976); test: protein kinase, cGMP-dependent, type I Millipore kinase panel; details: Compound concentration 10.0 uM
[43] = target: Serine/threonine-protein kinase Nek7 (Homo sapiens) (UniProt Q8TDX7); test: NIMA -related kinase 7 Millipore kinase panel; details: Compound concentration 10.0 uM
[44] = target: Phosphorylase b kinase gamma catalytic chain, liver/testis isoform (Homo sapiens) (UniProt P15735); test: phosphorylase kinase, gamma 2 Millipore kinase panel; details: Compound concentration 10.0 uM
[45] = target: Dual 3',5'-cyclic-AMP and -GMP phosphodiesterase 11A (Homo sapiens, UniProt Q9HCR9); test: hPDE11A4 PDE scan
[46] = target: Cyclin-dependent kinase 5/CDK5 activator 1 (Homo sapiens) (UniProt Q00535+Q15078); test: cyclin-dependent kinase 5 / p35 Millipore kinase panel; assay type: protein-complex assay; details: Compound concentration 10.0 uM
[47] = target: cAMP and cAMP-inhibited cGMP 3',5'-cyclic phosphodiesterase 10A (Homo sapiens, UniProt Q9Y233); test: In vitro assay with human PDE10A
Chain of cAMP and cAMP-inhibited cGMP 3',5'-cyclic phosphodiesterase 10A (Q9Y233 whole entry): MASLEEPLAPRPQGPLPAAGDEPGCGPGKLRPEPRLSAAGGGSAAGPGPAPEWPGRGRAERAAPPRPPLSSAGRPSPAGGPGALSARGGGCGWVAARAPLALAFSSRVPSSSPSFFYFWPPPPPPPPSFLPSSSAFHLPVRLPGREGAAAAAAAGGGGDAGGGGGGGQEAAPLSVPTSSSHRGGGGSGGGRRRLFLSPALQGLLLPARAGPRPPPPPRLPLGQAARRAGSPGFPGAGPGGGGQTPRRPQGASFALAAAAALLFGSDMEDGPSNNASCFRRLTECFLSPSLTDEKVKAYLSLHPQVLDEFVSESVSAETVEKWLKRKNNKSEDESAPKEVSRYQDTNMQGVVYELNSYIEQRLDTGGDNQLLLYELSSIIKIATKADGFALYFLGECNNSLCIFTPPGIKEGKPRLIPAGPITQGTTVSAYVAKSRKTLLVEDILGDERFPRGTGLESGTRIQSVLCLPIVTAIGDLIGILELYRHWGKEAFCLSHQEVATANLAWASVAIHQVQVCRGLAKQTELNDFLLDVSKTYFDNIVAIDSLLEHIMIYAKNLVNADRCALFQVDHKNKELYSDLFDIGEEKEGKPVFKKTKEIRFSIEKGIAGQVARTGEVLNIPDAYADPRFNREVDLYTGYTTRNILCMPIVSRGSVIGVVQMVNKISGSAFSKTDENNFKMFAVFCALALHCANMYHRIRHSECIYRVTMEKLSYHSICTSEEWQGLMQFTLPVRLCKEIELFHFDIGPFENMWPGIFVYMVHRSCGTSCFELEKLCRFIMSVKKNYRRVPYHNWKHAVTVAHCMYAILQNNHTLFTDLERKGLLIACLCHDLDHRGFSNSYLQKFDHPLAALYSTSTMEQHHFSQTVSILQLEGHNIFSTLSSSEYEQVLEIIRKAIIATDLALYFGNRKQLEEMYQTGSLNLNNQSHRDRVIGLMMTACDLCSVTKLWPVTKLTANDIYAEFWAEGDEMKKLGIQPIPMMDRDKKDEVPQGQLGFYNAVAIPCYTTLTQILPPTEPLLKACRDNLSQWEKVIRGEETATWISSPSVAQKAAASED

Chain of Somatostatin receptor (Mus musculus) (P30935 whole entry): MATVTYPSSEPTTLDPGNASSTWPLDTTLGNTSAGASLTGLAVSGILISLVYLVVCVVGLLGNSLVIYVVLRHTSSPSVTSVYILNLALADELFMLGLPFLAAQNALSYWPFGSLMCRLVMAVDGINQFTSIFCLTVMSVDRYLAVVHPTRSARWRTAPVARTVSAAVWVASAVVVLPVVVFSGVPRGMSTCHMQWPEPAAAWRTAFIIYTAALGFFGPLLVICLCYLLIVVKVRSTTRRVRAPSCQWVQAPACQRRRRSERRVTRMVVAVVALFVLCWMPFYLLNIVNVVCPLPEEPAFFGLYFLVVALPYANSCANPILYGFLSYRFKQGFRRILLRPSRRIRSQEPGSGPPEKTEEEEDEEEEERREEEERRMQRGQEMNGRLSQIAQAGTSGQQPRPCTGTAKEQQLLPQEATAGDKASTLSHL
Chain of Somatostatin receptor (Mus musculus) (O08858 whole entry): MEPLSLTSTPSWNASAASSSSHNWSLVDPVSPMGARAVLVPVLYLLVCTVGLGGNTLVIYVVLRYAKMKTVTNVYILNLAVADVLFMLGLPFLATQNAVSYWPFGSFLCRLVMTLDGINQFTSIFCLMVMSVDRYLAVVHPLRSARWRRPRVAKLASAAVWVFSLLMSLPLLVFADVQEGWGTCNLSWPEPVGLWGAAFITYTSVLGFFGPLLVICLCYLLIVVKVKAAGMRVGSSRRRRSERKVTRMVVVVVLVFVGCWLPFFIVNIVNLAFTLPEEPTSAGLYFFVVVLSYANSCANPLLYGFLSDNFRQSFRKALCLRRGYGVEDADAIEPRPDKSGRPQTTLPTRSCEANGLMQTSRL
Chain of Somatostatin receptor (Mus musculus) (P30875 whole entry): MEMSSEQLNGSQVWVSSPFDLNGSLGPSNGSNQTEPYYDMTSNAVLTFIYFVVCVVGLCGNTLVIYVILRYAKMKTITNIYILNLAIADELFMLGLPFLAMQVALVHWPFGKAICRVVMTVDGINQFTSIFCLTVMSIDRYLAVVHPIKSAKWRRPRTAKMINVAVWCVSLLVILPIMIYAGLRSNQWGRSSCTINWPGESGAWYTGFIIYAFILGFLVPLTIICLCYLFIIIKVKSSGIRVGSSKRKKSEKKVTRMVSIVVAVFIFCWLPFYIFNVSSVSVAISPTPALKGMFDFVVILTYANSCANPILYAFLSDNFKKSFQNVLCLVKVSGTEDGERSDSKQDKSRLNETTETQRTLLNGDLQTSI
Chain of Somatostatin receptor (Mus musculus) (P30873 whole entry): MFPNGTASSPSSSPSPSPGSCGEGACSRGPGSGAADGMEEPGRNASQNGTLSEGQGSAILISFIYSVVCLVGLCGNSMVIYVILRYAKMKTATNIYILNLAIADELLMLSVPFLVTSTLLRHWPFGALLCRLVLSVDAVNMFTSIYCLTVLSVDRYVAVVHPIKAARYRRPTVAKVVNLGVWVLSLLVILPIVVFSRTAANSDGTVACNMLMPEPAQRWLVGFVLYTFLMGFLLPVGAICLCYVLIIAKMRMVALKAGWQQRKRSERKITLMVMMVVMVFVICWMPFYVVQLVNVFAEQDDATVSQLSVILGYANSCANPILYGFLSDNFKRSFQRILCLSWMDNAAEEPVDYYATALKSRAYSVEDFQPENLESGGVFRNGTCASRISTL
Chain of Somatostatin receptor (Mus musculus) (P49660 with tags, fused parts or gaps): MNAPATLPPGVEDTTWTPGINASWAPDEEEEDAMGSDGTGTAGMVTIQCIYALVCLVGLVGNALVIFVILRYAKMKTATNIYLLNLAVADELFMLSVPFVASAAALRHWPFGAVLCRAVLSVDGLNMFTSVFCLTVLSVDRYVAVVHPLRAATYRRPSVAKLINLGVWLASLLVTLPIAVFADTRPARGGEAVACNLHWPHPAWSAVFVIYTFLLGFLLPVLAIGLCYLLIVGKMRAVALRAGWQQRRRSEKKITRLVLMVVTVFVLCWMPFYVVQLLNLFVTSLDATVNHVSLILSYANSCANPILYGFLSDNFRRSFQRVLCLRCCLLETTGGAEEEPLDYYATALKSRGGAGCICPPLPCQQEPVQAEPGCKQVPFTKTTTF
Chain of Ribosomal protein S6 kinase alpha-1 (Homo sapiens) (Q15418 whole entry): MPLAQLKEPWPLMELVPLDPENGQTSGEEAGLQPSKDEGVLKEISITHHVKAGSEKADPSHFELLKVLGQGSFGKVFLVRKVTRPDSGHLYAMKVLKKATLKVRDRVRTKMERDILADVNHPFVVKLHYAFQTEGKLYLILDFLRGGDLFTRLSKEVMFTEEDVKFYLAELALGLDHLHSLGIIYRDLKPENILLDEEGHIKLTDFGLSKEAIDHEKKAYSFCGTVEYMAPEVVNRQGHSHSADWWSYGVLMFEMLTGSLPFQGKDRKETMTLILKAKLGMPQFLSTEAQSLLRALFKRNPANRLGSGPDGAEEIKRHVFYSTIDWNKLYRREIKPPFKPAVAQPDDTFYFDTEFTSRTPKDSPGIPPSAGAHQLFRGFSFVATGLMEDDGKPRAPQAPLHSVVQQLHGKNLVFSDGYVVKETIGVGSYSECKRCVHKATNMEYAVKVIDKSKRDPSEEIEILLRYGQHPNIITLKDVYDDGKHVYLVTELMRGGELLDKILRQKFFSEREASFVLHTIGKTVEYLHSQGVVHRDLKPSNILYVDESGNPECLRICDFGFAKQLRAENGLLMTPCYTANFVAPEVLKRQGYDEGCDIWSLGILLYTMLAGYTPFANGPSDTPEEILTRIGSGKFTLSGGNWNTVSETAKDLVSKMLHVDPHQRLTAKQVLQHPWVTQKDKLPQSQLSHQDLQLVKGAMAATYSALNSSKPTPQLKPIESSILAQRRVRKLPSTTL
Chain of Substance-K receptor (Homo sapiens) (P21452 whole entry): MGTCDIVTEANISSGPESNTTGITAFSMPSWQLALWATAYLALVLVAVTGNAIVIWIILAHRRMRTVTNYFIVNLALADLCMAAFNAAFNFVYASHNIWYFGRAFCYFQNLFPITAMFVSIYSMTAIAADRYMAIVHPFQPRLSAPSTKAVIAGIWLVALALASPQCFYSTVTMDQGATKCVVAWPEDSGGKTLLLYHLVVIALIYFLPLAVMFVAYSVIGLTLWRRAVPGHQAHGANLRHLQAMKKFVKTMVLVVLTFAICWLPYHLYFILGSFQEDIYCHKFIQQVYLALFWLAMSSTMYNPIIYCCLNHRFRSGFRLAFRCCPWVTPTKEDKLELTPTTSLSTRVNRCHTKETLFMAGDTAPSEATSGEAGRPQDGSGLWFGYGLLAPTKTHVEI
Chain of MAP kinase-activated protein kinase 3 (Homo sapiens) (Q16644 whole entry, looked up): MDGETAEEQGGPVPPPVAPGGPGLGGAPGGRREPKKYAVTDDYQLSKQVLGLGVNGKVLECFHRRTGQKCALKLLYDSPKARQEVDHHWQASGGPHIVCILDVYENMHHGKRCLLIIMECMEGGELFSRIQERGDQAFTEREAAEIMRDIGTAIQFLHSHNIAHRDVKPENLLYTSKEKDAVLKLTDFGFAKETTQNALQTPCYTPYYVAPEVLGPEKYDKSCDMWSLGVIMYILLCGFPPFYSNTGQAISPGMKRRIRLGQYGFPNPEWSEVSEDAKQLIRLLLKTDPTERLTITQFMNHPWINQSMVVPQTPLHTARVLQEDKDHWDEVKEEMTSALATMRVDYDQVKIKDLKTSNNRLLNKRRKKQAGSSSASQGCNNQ
Chain of Serine/threonine-protein kinase Sgk1 (Homo sapiens) (O00141 whole entry): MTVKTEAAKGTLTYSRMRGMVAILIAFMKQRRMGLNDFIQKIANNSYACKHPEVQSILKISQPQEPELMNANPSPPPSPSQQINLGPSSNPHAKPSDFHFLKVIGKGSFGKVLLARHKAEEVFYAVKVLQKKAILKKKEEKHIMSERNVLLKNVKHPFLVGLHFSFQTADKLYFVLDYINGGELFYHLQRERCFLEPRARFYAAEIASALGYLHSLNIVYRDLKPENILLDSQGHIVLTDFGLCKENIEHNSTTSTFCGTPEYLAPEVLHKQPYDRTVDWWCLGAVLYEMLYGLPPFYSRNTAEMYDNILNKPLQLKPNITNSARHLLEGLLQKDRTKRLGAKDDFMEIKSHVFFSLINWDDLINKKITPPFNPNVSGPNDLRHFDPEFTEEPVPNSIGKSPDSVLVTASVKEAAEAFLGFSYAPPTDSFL

Compound: COCCc1ccc(-c2c(C)nc3c(N4CCOCC4)ccnn23)cn1 [JNJ-42396302]
effect [1]: -2.55% | inhibition [2]: 4% | inhibition [3]: -10% | inhibition [4]: 2% | inhibition [5]: -3% | inhibition [6]: -1% | inhibition [7]: -5% | inhibition [8]: -6% | effect [9]: -23.4% | Ki [10]: 8.5 µM | effect [11]: 1.7% | effect [12]: 13.6% | inhibition [13]: 4% | inhibition [14]: 7% | inhibition [15]: 2% | effect (Rattus norvegicus [16]): -6.2% | inhibition [17]: 1% | effect (Homo sapiens): 1.55% | inhibition (Rattus norvegicus [18]): 2.18% | inhibition [19]: -3% | inhibition [20]: -5% | inhibition [21]: -3% | inhibition [22]: -6% | effect [23]: -2.4% | inhibition [24]: -3% | inhibition [25]: -7% | inhibition [26]: 1% | inhibition [27]: 3% | inhibition [28]: 0% | inhibition [29]: 1% | inhibition [30]: -7% | effect [31]: 2.8% | inhibition [32]: 6% | effect [33]: 1.9% | effect [34]: 5.7% | inhibition [35]: 4% | Increase in cAMP [36]: 2.3 fold | inhibition [37]: 9% | inhibition [38]: 35% | Ki [39]: 49 µM | effect [40]: 9.7% | inhibition [41]: 1% | inhibition [42]: 2% | inhibition [43]: 2% | inhibition [44]: -3% | Ki [45]: 46 µM | inhibition [46]: -5%

IC50 [47]: > 10 µM (not active)
Compound: c1ccc(C2CCN(c3cnc4c(N5CCOCC5)nccn34)CC2)cc1
